Measurements published in patent publication US20200009173A1, “TRIAZOLE-CONTAINING MACROLIDES AND OPHTHALMIC USES THEREFOR” (Tetard, Inc., priority 2017, published 2020).
In brackets after ≈: the same amount, converted by molar mass.

Experiments:
[1] = test system: Viridans group streptococci; assay: MIC, Viridans group streptococci; assay type: cell-based; settings: N = 51
[2] = test system: Streptococcus pyogenes (a); assay: MIC, Streptococcus pyogenes (a); assay type: cell-based; settings: N = 407
[3] = log P; assay type: physicochemical
Protocol: Formulated compounds are tested for their transverse diffusive ability through the membrane. Diffusion through biological membranes is directly correlated to the formulation excipients, its physical state (suspension, solution, emulsion, etc.) and its log P. […] For compounds with log P>3, the compound typically permeates the lipid epithelium of the cornea, only to be hindered by the hydrophilic stroma. For an indication like blepharitis, high corneal concentrations achieved with repeat dosing will result in a drug depot, acting like a sustained release system.

[4] = test system: Listeria monocytogenes; assay: MIC, Listeria monocytogenes; assay type: cell-based; settings: N = 10
[5] = test system: Neisseria gonorrhoeae; assay: MIC, Neisseria gonorrhoeae; assay type: cell-based; settings: N = 34

Q: With CC[C@H]1OC(=O)[C@@](C)(F)C(=O)[C@H](C)[C@@H](O[C@@H]2O[C@H](C)C[C@H](N(C)C)[C@H]2O)[C@](C)(OC)C[C@@H](C)C(=O)[C@H](C)[C@H]2N(CCCCn3cc(-c4cccc(N)c4)nn3)C(=O)O[C@]12C [CEM-101, solithromycin] as the compound, how does the MIC50 [1] read?
A: The MIC50 was no more than 0.008 µg/mL.

Q: And the MIC90 [1]?
A: Its MIC90 is 0.06 µg/mL (≈ 0.071 µM).

Q: And the “MIC Range” value [1]?
A: The value was ≤0.008-0.12 ^ μg/mL.

Q: What about the “MIC Range” value [2] of the same compound?
A: Its value is ≤0.03-0.5 ^ μg/mL.

Q: And the MIC50 ([2]; Streptococcus pyogenes)?
A: The MIC50 was no more than 0.03 µg/mL.

Q: What about the MIC90 ([2]; Streptococcus pyogenes) of the same compound?
A: Its MIC90 is no more than 0.03 µg/mL.

Q: And the logP [3]?
A: Its logP is 4.2.

Q: And the MIC50 ([4]; Listeria monocytogenes)?
A: Its MIC50 is 0.03 µg/mL (≈ 0.0355 µM).

Q: What about the MIC90 ([4]; Listeria monocytogenes) of the same compound?
A: The MIC90 was 0.03 µg/mL (≈ 0.0355 µM).

Q: And the “MIC Range” value [4]?
A: Its value is 0.03 µg/mL (≈ 0.0355 µM).

Q: What about the “MIC Range” value [5] of the same compound?
A: Its value is 0.03 to 0.25 µg/mL.

Q: And the MIC50 ([5]; Neisseria gonorrhoeae)?
A: The MIC50 was 0.06 µg/mL (≈ 0.071 µM).

Q: What about the MIC90 ([5]; Neisseria gonorrhoeae) of the same compound?
A: The MIC90 was 0.12 µg/mL (≈ 0.142 µM).
